Columns and labels:
Assay type in all cases: in vivo, human
[1] = test system: premenopausal women with endometriosis; experiment: Phase 2 endometriosis studies: uterine bleeding by daily eDiary; conditions: for days of bleeding per month: eDiary
Description: The effects of elagolix on uterine bleeding were evaluated in the Phase 2 endometriosis program, with an analysis of the percentage of days of bleeding per month according to daily reporting of bleeding in an electronic diary (eDiary).

[2] = test system: premenopausal women with uterine fibroids and heavy menstrual bleeding; experiment: Phase 2a uterine fibroid trial: fibroid volume and uterine volume; conditions: for percent of subjects who achieved a ≥25% reduction in uterine volume: placebo 9%; for percent of subjects who achieved a ≥25% reduction in fibroid volume: placebo 29%
Excerpt: In another embodiment, the present invention relates to methods for reducing the fibroid volume in a subject with uterine fibroids. In one aspect, the methods of the present invention can be used to reduce the fibroid volume by greater than or equal to at least about 25%. In another aspect, the methods of the present invention can be used to reduce the fibroid volume in a subject with uterine fibroids. More specifically, the methods of the present invention can be used to reduce the fibroid volume in a subject with uterine fibroids by volume by greater than or equal to at least about 25%. In another aspect, the methods of the present invention are used to reduce the fibroid volume in a subject with uterine fibroids prior to hysterectomy, myomectomy, or uterine artery embolization. Methods for measuring fibroid volume are known in the art and include ultrasound and/or MRI.
In another embodiment, the present invention relates to methods for reducing the total uterine volume in a subject with uterine fibroids. The “total uterine volume” is the volume of the entire uterus. In one aspect, the methods of the present invention can be used to reduce the total uterine volume by greater than or equal to at least about 25%. In another aspect, the methods of the present invention can be used to reduce the total uterine volume in a subject with uterine fibroids. More specifically, the methods of the present invention can be used to reduce the total uterine volume in a subject with uterine fibroids by greater than or equal to at least about 25%. Methods for measuring total uterine volume are known in the art and include, ultrasound and/or MRI.
This example is a Phase 2a, multicenter, double-blind, placebo-controlled, randomized trial (N=280) with a 3-month treatment duration evaluating the safety and efficacy of Elagolix administered with or without Activella® in premenopausal women with uterine fibroids.
It evaluates the safety and efficacy of […] of Elagolix (100 mg BID, 200 mg BID, 200 mg BID plus low dose Activella® (a combination of 0.5 mg estradiol and 0.1 mg northindrone acetate), 300 mg BID, 300 mg BID plus 1.0 mg of Estrace and 200 mg cyclical Prometrium (collectively referred to as “EP”), 400 mg QD and 600 QD) versus placebo (PBO) to reduce uterine bleeding associated with uterine fibroids and to reduce fibroid volume and uterine volume in premenopausal women 20 to 49 years of age with heavy menstrual bleeding (HMB; >80 mL blood loss per menstrual cycle). The study involved the following six (6) cohorts:
There are a number of efficacy endpoints, but a composite endpoint consisting of two bleeding assessments was used to assess one measure of efficacy. It included the percent of subjects who achieved a menstrual blood loss (MBL) volume of <80 mL at the Final Month (last 28 days of treatment), and also achieved a ≥50% reduction in MBL volume from baseline to the Final Month (last 28 days of treatment) as measured by the Alkaline Hematin (AH) method. Eighty-five percent (85%), 97%, and 30% of subjects achieved the composite bleeding assessment endpoint in the 200 mg BID, 300 mg BID, and placebo groups, respectively (P<0.05 for 200 mg BID versus placebo in cohort 1, and 300 mg BID versus placebo in cohort 2). […]

[3] = test system: women with endometriosis; experiment: Phase 2 endometriosis studies: bone mineral density (BMD) over 24 weeks
Description: Changes in BMD at the lumbar spine and the femur were evaluated over 24 weeks in three Phase 2 endometriosis studies. […] While a larger effect on BMD is anticipated with a 200 or 300 mg BID regimen compared to that observed with 250 mg QD dosed for 6 months in previous studies, the magnitude of this effect is unknown.

[4] = test system: premenopausal women with endometriosis; experiment: Phase 2 endometriosis studies: endometriosis-associated pain efficacy
Description: Six Phase 2 randomized, double-blind, placebo-, and/or active-controlled, parallel-group, multiple dose studies were completed to evaluate elagolix as a treatment for endometriosis associated pain. Efficacy was assessed for dysmenorrhea (DYS), nonmenstrual pelvic pain (NMPP), dyspareunia, and general pelvic pain with a range of instruments.
Additional efficacy assessments included quality of life and the use of analgesics for control of endometriosis pain.
Across these Phase 2 studies, the enrollment criteria were similar and were intended to select premenopausal women aged 18 to 49 years of age with endometriosis confirmed by visual inspection (laparoscopy or laparotomy within 5 to 8 years of screening) who experienced moderate to severe endometriosis-associated pain. Women were included if they had regular menstrual cycles and no significant uterine fibroids or pelvic lesions.
Total daily doses of elagolix ranging from 75 to 250 mg were evaluated across a range of pain instruments measuring DYS, NMPP, or general pelvic pain (including patient global impression of change), during 12 or 24 weeks of treatment.

`COc1cccc(-c2c(C)n(Cc3c(F)cccc3C(F)(F)F)c(=O)n(C[C@H](NCCCC(=O)O)c3ccccc3)c2=O)c1F` [Elagolix, 4-((R)-2-[5-(2-fluoro-3-methoxy-phenyl)-3-(2-fluoro-6-trifluoromethyl-benzyl)-4-methyl-2,6-dioxo-3,6-dihydro-2H-pyrimidin-1-yl]-1-phenyl-ethylamino)-butyric acid] was tested, and the “days of bleeding per month” value ([1]; 250 mg QD compared with 150 mg QD) was “fewer days of bleeding”, the “bleeding intensity and intervals between bleeding episodes” value ([1]; majority of elagolix recipients, individual menstrual charts from eDiary) was “reduced bleeding intensity and often had extended intervals between bleeding episodes” and the “days of bleeding per month” value ([1]; overall, compared with placebo) was “fewer days of bleeding per month”. For the same compound, the “percent of subjects who achieved a ≥25% reduction in uterine volume” value ([2]; 200 mg BID) was 50%, the “percent of subjects who achieved a ≥25% reduction in fibroid volume” value ([2]; 200 mg BID) was 63% and the “percent of subjects who achieved a ≥25% reduction in uterine volume” value ([2]; 300 mg BID) was 68%. For the same compound, the “percent of subjects who achieved a ≥25% reduction in fibroid volume” value ([2]; 300 mg BID) was 55%, the “uterine and fibroid volumes (FIG. 4)” value ([2]; 300 mg BID, within 3 months) was “strongest effects” and the “subjects with decreases in BMD of the spine that exceeded 5%” value ([3]; 75 mg BID, 5/62 subjects, 24 weeks, largest study) was 8.1%. The “largest decrease in BMD of the spine” value ([3]; 150 mg QD and 75 mg BID, 24 weeks, largest study) was “no subject exceeded −8%”, the “subjects with decreases in BMD of the spine that exceeded 5%” value ([3]; 150 mg QD, 2/55 subjects, 24 weeks, largest study) was 3.6% and the bone loss ([3]; doses that provide partial estrogen suppression (target dose 150 mg QD)) was “modest degree of bone loss”. The “quality of life assessments” value ([4]; Phase 2 endometriosis studies) was “improved quality of life assessments”, the symptoms of dyspareunia ([4]; Phase 2 endometriosis studies) was “reduced” and the “effect on DYS and NMPP compared with DMPA-SC” value ([4]; daily dose of 150 mg) was “comparable effect”. For the same compound, the “effect on DYS and NMPP compared with leuprorelin” value ([4]; daily doses of 150 mg and 250 mg) was “less effect”, the endometriosis-associated pain ([4]; daily doses of 100 to 250 mg, 12 or 24 weeks) was “clinically meaningful reductions” and the “overall usage of analgesics for pain control” value ([4]; elagolix treatment arms) was “decreased”.
